Measured values reported in patent US20240139195A1, “METHODS OF TREATING CHRONIC ACTIVE ANTIBODY-MEDIATED REJECTION USING BTK INHIBITORS” (BeiGene Switzerland GmbH, priority 2021, published 2024).
“Also recorded” adds a separate entry of the source.

Experiments:
[1] = test system: donor specific alloantibody (DSA); assay: Donor specific alloantibody (DSA) analysis by flow cytometry; assay type: in vivo, Lewis rats; conditions: allogeneic recipients, vs vehicle
Procedure: (§1) Left kidney transplantation was performed between male F344 and Lewis rats [Vogelbacher R, et al. Nephrology, dialysis, transplantation: official publication of the European Dialysis and Transplant Association—European Renal Association. 2010; 25: 3764-73.]. The average time of cold ischemia time and warm ischemia time was 25 and 40 minutes, respectively. In order to allow the production of alloantibodies, no immunosuppressive agents were used within the first 2 weeks after kidney transplantation.
Spleen lymphocytes of normal F344 rats were extracted using lymphocyte separation medium. Serum samples of allogeneic rats were incubated with spleen lymphocytes at room temperature for 30 minutes. Spleen lymphocytes were washed for three times and then incubated with a fluorescein isothiocyanate (FITC)-labeled anti-rat IgG antibody (BD Biosciences) at room temperature for 30 min. Mean fluorescence intensity (MFI) was determined in order to assess DSA levels by flow cytometry (Beckman DxFLEX, Beckman, Brea, CA) [Zhao D, et al. American journal of transplantation: official journal of the American Society of Transplantation and the American Society of Transplant Surgeons. 2018; 18: 1083-95; Liao T, et al. Frontiers in immunology. […]

renal allografts = assay: Histological examination of renal allografts (H&E, PAS, Masson staining) for severity of CAMR; assay type: in vivo, Lewis rats
Procedure: Left kidney transplantation was performed between male F344 and Lewis rats [Vogelbacher R, et al. Nephrology, dialysis, transplantation: official publication of the European Dialysis and Transplant Association—European Renal Association. 2010; 25: 3764-73.]. […] In order to allow the production of alloantibodies, no immunosuppressive agents were used within the first 2 weeks after kidney transplantation. […] Histological analysis was performed by using H&E, PAS and Masson staining. H&E, PAS and Masson trichome staining were performed as detailed elsewhere[Wang Z, et al. Journal of cellular and molecular medicine. 2017; 21: 2359-69.], which was used to evaluate the severity of CAMR. The diagnostic criteria of CAMR was according to Banff 2017 criteria. Characteristics of CAMR were defined as arterial intimal fibrosis, positive C4d staining in PTC and DSA. Measurement of arteriosclerosis caused by intimal fibrosis was performed for the areas surrounded by the luminal surface and internal elastic lamina of each vessel. The area determined by the internal elastic lamina subtraction of the internal elastic lamina to the luminal area was considered as the intimal area. Quantitative analysis the morphometric change of the kidney sections was performed according to results of two pathologists blinded to the experimental design independently.

[2] = test system: C4d and IgG deposition in allograft kidney; assay: Immunofluorescence staining of C4d and IgG deposition in allograft kidney; assay type: in vivo, Lewis rats; conditions: 2 mg/kg
Procedure: as §1

[3] = test system: T cells, B cells and plasma cells in peripheral blood; assay: Flow cytometry of T cells, B cells and plasma cells in rat peripheral blood; assay type: in vivo; conditions: 8 weeks after kidney transplantation
Procedure: PBMCs were doubly incubated with FITC-conjugated anti-CD45R (2.5 μg/10^6 cells; eBioscience, Thermo Fisher Scientific, USA) and APC-conjugated anti-CD19 (2 μg/10^6 cells; Bioss, China), FITC-conjugated anti-CD45R (2.5 μg/10^6 cells; eBioscience, Thermo Fisher Scientific, USA) and Alexa Fluor 647 (conjugated anti-CD138 (0.1 μg/10^6 cells; Abcam, USA), APC-conjugated anti-CD3 (3 μg/10^6 cells; BioLegend, USA) and FITC-conjugated anti-CD4 (0.5 μg/10^6 cells; BioLegend, USA) as well as APC-conjugated anti-CD3 (3 μg/10^6 cells; BioLegend, USA) and Percp-eFluor710-conjugated anti-CD8 (0.3 μg/10^6 cells; BioLegend, USA), respectively. The percentages of CD45R^+CD19^+B cells, CD45R^−CD138^+ plasma cells, and CD3^+CD4^+ and CD3^+CD8^+ T cells were determined by flow cytometry (BD Accuri C6, BD Biosciences).
In order to investigate the immune state of syngenetic and allogenic rats, flow cytometry was used to test the amounts of T cells, B cells, and plasma cells.

[4] = test system: TNF-α, TGF-β, IL-17A, IL-35, IL-10; assay: ELISA of rat serum cytokines; assay type: in vivo; conditions: 12 weeks after kidney transplantation, allogeneic recipients vs vehicle
Procedure: The levels of rat serum TNF-α, TGF-β, IL-17A, IL-35, IL-10 were quantified by rat TNF-α ELISA kit (MUTISCIENCES; China), rat TGF-β ELISA kit (MUTISCIENCES; China), rat IL-35 ELISA kit (MUTISCIENCES; China), rat IL-17A ELISA kit (MUTISCIENCES; China) and rat IL-10 ELISA kit (MUTISCIENCES; China), respectively. The assays were performed as described in the manufacturer's instructions.
At 12 weeks after kidney transplantation, serum isolated from rat peripheral blood was used to detect the concentration of inflammatory cytokines.

[5] = Renal function assessment (blood creatinine and urea nitrogen) after resection of native right kidney; assay type: in vivo, Lewis rats; conditions: allogeneic recipients, right kidney resected 10 days after transplantation, vs vehicle
Procedure: Concentrations of rat blood creatinine and urea nitrogen were tested by instructions of manufacturer of the kits (JianCheng, China).
(§2) After the resection of right kidney, the blood concentration of creatinine and urea nitrogen continued to deteriorate and reach the summit at 12 weeks after transplantation.

[6] = Long-term survival of allogeneic kidney transplant recipients; assay type: in vivo, Lewis rats; conditions: right kidney resected 10 days after transplantation, vs vehicle, log-rank P<0.05
Source text: as §2

[7] = test system: T cells, B cells, plasma cells and macrophages in allograft kidneys; conditions: 12 weeks after transplantation
Procedure: Recipients with phosphate buffered saline alone were considered as the vehicle control. At 4, 8, 12 and 16 weeks, organs were harvested and divided into two parts, which were fixed in paraffin or snap-frozen in N2 and stored at −80° C. Peripheral blood mononuclear cells (PBMCs) were separated from the rat peripheral blood to be used in flow cytometry.
Paraffin-embedded sections (4 m) were incubated with primary antibodies against anti-phospho-BTK (1:100; Santa Cruz, USA), C4d (1:200, BioLegend, USA) CD3 (1:200, BioLegend, USA), CD4 (1:200, BioLegend, USA), CD8 (1:200, BioLegend, USA), CD19 (1:200, Bioss, China), CD138 (1:100, Abcam) and CD68 (1:100, Abcam) overnight at 4° C. in a humidified chamber. The appropriate isotype-matched IgG was used as the negative control. […] Quantitative analysis of positive cells (T cells, B cells, plasma cell and macrophages) and IgG positive area was analyzed by using Image-Pro Plus (Media Cybernetics, Rockville, MD). Quantitative analysis of C4d positive PTC was performed according to outcomes of two independent pathologists blinded to the experimental design.

[8] = after treatment for 10 weeks, 2 mg/kg, vs allograft kidneys

Compound: C=CC(=O)N1CCC([C@@H]2CCNc3c(C(N)=O)c(-c4ccc(Oc5ccccc5)cc4)nn32)CC1 [Compound 1, (S)-7-(1-acryloylpiperidin-4-yl)-2-(4-phenoxyphenyl)-4,5,6,7-tetrahydropyrazolo-[1,5-a]pyrimidine-3-carboxamide]
- production of DSA ([1]; treatment from second week after transplantation, 8, 12, 16 weeks): significantly reduced; also recorded: prevented further production
- level of DSA ([1]; until end of treatment at 16 weeks): relatively low level
- lesion area of interstitial fibrosis (PAS and Masson staining) (renal allografts; [8]): significantly ameliorated
- lesion area of tubular atrophy (PAS and Masson staining) (renal allografts; [8]): significantly ameliorated
- glomerular sclerosis (H&E staining) (renal allografts; allogeneic recipients, 2 mg/kg, vs vehicle): significantly ameliorated
- CAMR (fibrous intimal thickening in arteries, C4d deposition in PTC, increase of DSA) (renal allografts; allograft kidney, treatment from second week after transplantation): significantly alleviated
- deposition of C4d in peritubular capillaries (PTC) ([2]; allograft kidney): dramatically reduced
- positive (lesion) area of IgG ([2]; allograft kidneys after treatment, almost 30% without treatment): less than 10%
- effect on T cells (CD3+CD4+, CD3+CD8+) in peripheral blood ([3]; 2 mg/kg): sight effect; also recorded: slight effects
- elevation of CD19+CD45R+ B cells in peripheral blood ([3]; 2 mg/kg for 6 weeks): significantly inhibited increases; also recorded: significantly suppressed
- elevation of plasma cells in peripheral blood ([3]; 2 mg/kg for 6 weeks): significantly inhibited increases; also recorded: significantly suppressed
- secretion of IL-10 (serum) [4]: further increased
- secretion of IL-35 (serum) [4]: further increased
- secretion of TGF-β (serum) [4]: further increased
- serum level of IL-17A [4]: reduce; also recorded: effectively decreased
- serum level of TNF-α [4]: reduce; also recorded: effectively decreased
- blood creatinine [5]: remarkably inhibited the increases; also recorded: relatively low levels
- blood urea nitrogen [5]: remarkably inhibited the increases; also recorded: relatively low levels
- survival rate of allogeneic recipients [6]: significantly increased; also recorded: higher
- infiltration of B cells in allograft kidney [7]: remarkably reduced; also recorded: significantly reduced
- infiltration of T cells in allograft kidney [7]: remarkably reduced; also recorded: significantly reduced
- infiltration of macrophages in allograft kidney [7]: remarkably reduced; also recorded: decrease
- infiltration of plasma cells in allograft kidney [7]: significantly reduced
